According to PMC8946662, “Topical Bimiralisib Shows Meaningful Cutaneous Drug Levels in Healthy Volunteers and Mycosis Fungoides Patients but No Clinical Activity in a First-in-Human, Randomized Controlled Trial” (Cancers, 2022):
Where “and” joins values, the source holds several entries; their conditions need not be identical. Identical values can stand only once. Entries after “also recorded” stand apart in the source; their conditions may differ. Like-named read-outs stand apart in the source and are kept apart here.

What was measured:
[1] = Systemic pharmacokinetics in plasma of early-stage MF patients (UPLC-MS/MS), part B; format: in vivo, human
Description: (§1) The healthy volunteers in part A were administered 2 mg/cm^2 topical bimiralisib 2% on 400 cm^2 and 2 mg/cm^2 vehicle gel (serving as placebo with identical appearance) on 100 cm^2 skin of the back once daily by the study physician for 21 consecutive days, all administered at the study site. The 19 patients in part B were randomized 1:1, with 9 assigned to active and 10 to placebo. Randomization was predefined and performed in SAS version 9.4 (SAS Institute, Cary, NC, USA) by an independent statistician, using the SAS code for the parallel, two-treatment randomization with block size 2. The investigators, study personnel, sponsor and patients were blinded for allocated treatment throughout the study. Patients randomized in the treatment group applied topical bimiralisib 2%, once daily for 42 consecutive days, whereas the control group applied the vehicle gel. During the treatment period, the patients applied the bimiralisib or vehicle themselves at home after training and instructions on day 1. After 42 days, patients with ≥15% lesion improvement by CAILS could enter a blinded extension period in which treatment was continued until day 84.
(§2) At baseline of part B, one to three MF lesions (target lesions) were chosen to define a 150–200 cm^2 treatment area. Other MF lesions were left untreated in this study. Emollients, i.e., unguentum leniens, were distributed to patients and allowed for daily use on the skin, barring the target lesion(s). In part B, patient visits to the study site were scheduled for days −42 (run-in period), 1, 14, 28, 42 (end of treatment for all patients with <15% lesion improvement), 56 and 70 (end of study). Patients continuing with the extended treatment period had three extra visits on days 84 (end of treatment), 98 and 112 (end of study). Study details are provided in the assessment schedule (Table 1, Part B).
(§3) Blood samples for determination of bimiralisib levels in plasma of HVs were collected predose and at 1, 3, 6 and 24 h on days 7, 14 and 21 of application in part A. In part B, PK blood samples from patients were collected predose and at 1, 2, 3 and 6 h after dosing on day 42 (or on day 84 in case of participation in the extension study) of topical application.
(§4) Pharmacokinetics in plasma were analyzed with a validated ultra-performance liquid chromatography–tandem mass spectrometer method (UPLC-MS/MS) with a lower limit of quantification of 1.00 ng/mL of plasma.
(§5) Pharmacokinetic data were visualized for each subject and part separately. Due to differences in surface areas and applied doses between part A and part B, pharmacokinetic data were normalized to allow for the exploration of differences in exposure between HVs and patients after log transformation. For exploratory purposes, the applied dose was stratified by part and by number of lesions. The average concentration (Cavg) per subject was calculated based on all pharmacokinetic data of an individual combined.

[2] = parameters: method as in earlier work; settings: plasma; cited from earlier work
healthy volunteers = test: Safety and tolerability in healthy volunteers, part A; format: in vivo, human
Description: as §1
(§6) The secondary endpoint was to characterize local tolerability, safety and systemic exposure of bimiralisib by application site assessment using the Local Irritation Grading Scale (LIGS), adverse events (AEs), safety measurements and systemic pharmacokinetics.
(§7) The LIGS, a composite score of erythema, edema and desquamation, was used to assess the application site for safety or tolerability issues. In addition, safety and tolerability were evaluated by monitoring of AEs, physical examinations, vital signs, 12-lead ECGs and laboratory tests.

[3] = Systemic pharmacokinetics in plasma of healthy volunteers (UPLC-MS/MS), part A; format: in vivo, human; settings: for AUC(0-t): topical, 2 mg/cm^2, HVs
Description: as §1, §3, §4, §5

MF patients = test: Safety and tolerability in MF patients, part B; format: in vivo, human
Description: as §1, §6, §7

[4] = Cutaneous pharmacokinetics in skin punch biopsies of healthy volunteers (MALDI-MSI); format: in vivo, human; settings: for Kp at 6 h / concentration at 6 h: human, topical; for Kp at 6 h: skin / plasma, 2 mg/cm^2, HVs; for concentration at 6 h: 2 mg/cm^2, HVs, day 21, 6 h after last application
Description: (§8) To investigate cutaneous pharmacokinetics in both HVs and patients, 3 mm skin punch biopsies of the treatment area were taken 6 h after the last topical application (day 21 in part A and day 42/84 in part B, respectively) and snap-frozen within 5 min after collection. Skin punch biopsies were shipped to ImaBiotech (MS Imaging Department, Lille, France) and analyzed using matrix-assisted laser desorption/ionization mass spectrometry imaging (MALDI-MSI) to spatially visualize pharmacokinetics of bimiralisib throughout the biopsy (Figure 1).
(§9) Figure 1 Method of obtaining cutaneous pharmacokinetics of bimiralisib in HVs and early-stage MF patients. (A) Bimiralisib gel 2% is applied topically, in part A at the back of six HVs and in part B at 1–3 target MF lesions. (B) A full-thickness skin punch biopsy was taken on day 21 and day 42/84, respectively, for HVs and MF patients. Skin punch biopsy was snap-frozen within 5 min, processed and cryosectioned. A single section was used for H&E staining. (C) MALDI matrix spraying. (D) Prepared samples were ionized by a laser beam. (E) Seven tesla Matrix-assisted laser desorption/ionization Fourier transform ion cyclotron resonance mass spectrometry imaging (7T-MALDI-FTICR MSI) acquisition. (F) Acquired data are analyzed and MALDI images are acquired.
(§10) Pharmacokinetics in tissue were analyzed with a validated 7T-MALDI-FTICR method with a lower limit of quantification of 62 ng/g of tissue and an assay sensitivity of […] (lower limit of detection). Pharmacokinetic data below the lower limit of quantification but above the limit of detection were interpolated and used in the analysis.

[5] = system: early-stage MF target lesions; test: Clinical efficacy and pharmacodynamics in early-stage MF patients (CAILS, LSCI, OCT, multispectral imaging); format: in vivo, human
Description: as §1, §2
The primary endpoint was to evaluate the efficacy of bimiralisib versus placebo after 6 weeks of treatment by the change from baseline on Composite Assessment of Index Lesion Severity (CAILS). Clinical efficacy was assessed by the CAILS per target lesion, which is a score derived from individual scores for erythema, desquamation, plaque elevation, hypo- or hyperpigmentation and lesion size. Change from baseline of the combined CAILS score for all target lesions was used to calculate the objective response rate (ORR), i.e., the number of patients with complete response (CR: 100% clearance of target lesions from baseline) and partial response (PR: 50%–99% clearance) divided by the total number of patients in the respective treatment arm. […] Target lesions were extensively characterized by the assessment of skin perfusion with laser speckle contrast imaging (LSCI, PeriCam PSI NR system, Perimed, Sweden); skin morphology (blood flow) by optical coherence tomography (OCT, VivoSight, Michelson Diagnostics, UK); and erythema, roughness and edema by a multispectral camera (Antera 3D, Miravez, Ireland). The Scarlet Red app (ScarletRed Vision, Vienna, Austria) was used by patients at home for daily photo documentation and erythema quantification of a single target lesion.
All safety and statistical calculations were conducted with SAS version 9.4 for Windows (SAS Institute, Cary, NC, USA). PK parameter calculations were conducted with R version 4.0.3 for Windows (R Foundation for Statistical Computing, Vienna, Austria). All efficacy endpoints were analyzed for both the per protocol set and full analysis set, using a mixed model analysis of covariance (ANCOVA) with treatment, time and interaction of treatment by time as fixed factors; baseline as covariate; and subject as random factor.

[6] = Cutaneous pharmacokinetics in skin punch biopsies of MF patients (MALDI-MSI); format: in vivo, human; settings: for concentration at 6 h: human, skin punch biopsy, topical, 2 % gel, MF patients
Description: as §8, §9, §10

CTCL patients = system: CTCL patients; parameters: method as in PMID 29233821; settings: oral, 19 CTCL patients; cited from earlier work
CTCL cell lines = settings: cited from earlier work

Nc1cc(C(F)(F)F)c(-c2nc(N3CCOCC3)nc(N3CCOCC3)n2)cn1 [bimiralisib, 5-(4,6-Dimorpholino-1,3,5-triazin-2-yl)-4-(trifluoromethyl)pyridin-2-amine]
highest plasma concentration reached ([1]; MF patients): 18.70 ng/mL | mean Cavg in plasma ([1]; MF patients, gel 2% once daily, day 42 or 84): 4.49 ng/mL | plasma concentrations relative to NOAEL ([1]; MF patients, NOAEL 96.6 ng/mL): substantially below | mean ratio of normalized plasma concentration, MF patients vs HVs ([1]; normalized around 200 cm^2/(2 mg/cm^2)): 2.44 fold | increase in normalized plasma concentration, MF patients compared to HVs ([1]; normalized for applied dose and area): 144% | human no observed adverse effect level (NOAEL Cmax) [2]: 96.6 ng/mL | acne at the application site, subjects (healthy volunteers; bimiralisib area, n = 3): 50% | LIGS scores, bimiralisib vs placebo areas (healthy volunteers; full course): comparable | subjects with one or more adverse events (healthy volunteers; n = 6, each subject received both bimiralisib and placebo areas): 100% | dryness at the application site, subjects (healthy volunteers; reported for both placebo- and bimiralisib-treated areas): 83.3% | mean Cavg in plasma ([3]; HVs, 2 mg/cm^2 gel 2% on 400 cm^2 once daily for 21 days): 0.96 ng/mL and 0.956 ng/mL | time at which steady state is reached ([3]; HVs, topical gel once daily): < 7 days | plasma concentrations relative to human NOAEL ([3]; HVs, NOAEL 96.6 ng/mL): detectable but low and substantially below | Cmax ([3]; human, plasma, 2 mg/cm^2, HVs, topical once daily, read-out: highest Cmax in plasma): 2.74 ng/mL | AUC(0-t) ([3]; human, plasma, after 14 days of once-daily gel, read-out: highest AUC(0-24h)): 40 ng·h/mL | AUC(0-t) ([3]; human, plasma, day 7, read-out: mean AUC(0-24 h)): 21.3 ng·h/mL | AUC(0-t) ([3]; human, plasma, day 14, read-out: mean AUC(0-24 h)): 22.2 ng·h/mL | vital signs, laboratory analyses, ECG, urinalysis (MF patients; both parts): did not result in any clinically significant changes | overall tolerability (MF patients; local reactions and systemic adverse events, HVs and MF patients): safe and well tolerated | myalgia, patients (MF patients; part B, bimiralisib group, 2/9): 22.2% | mild dryness at the application site, patients (MF patients; part B, bimiralisib group, day 14): 1/9 | well-defined erythema at the application site, patients (MF patients; part B, bimiralisib group, day 28): one | patients with at least one AE (MF patients; part B, bimiralisib group, six of nine patients): 66.7% | Kp at 6 h ([4]; read-out: mean ratio skin/plasma concentration): 3050 | Kp at 6 h ([4]; read-out: ratio skin/plasma concentration, range): 1210 to 7360 | concentration at 6 h ([4]; skin punch biopsy (epidermis), epidermis, read-out: mean concentration in skin punch biopsies): 2540 ng/g | concentration at 6 h ([4]; skin punch biopsy, read-out: concentration in skin punch biopsies, range): 1030 to 5700 ng/g | exposure in papillary and reticular dermis, lower than in epidermis ([4]; part A skin punch biopsies): approximately 10 fold | local exposure in epidermis relative to IC90 of pAKT and pS6 ([4]; part A skin punch biopsies, IC90 from ref 31, 32): within range of the IC90 of pAKT and pS6 | efficacy by CAILS vs placebo, in words ([5]; 42 days once-daily treatment, p = 0.74 over time, p = 0.98 on day 42): No statistical significant difference; also recorded: no statistically significant clinical response | objective response rates between treatment groups ([5]; Table S7): No substantial differences | subjects with ≥15% lesional response by CAILS ([5]; bimiralisib group (n = 9), day 42): Three | clinical response classification ([5]; bimiralisib group, by CAILS): stable disease | difference in change from baseline in CAILS, bimiralisib vs placebo ([5]; day 42, once daily, 95% CI −3.3–3.4, p = 0.9820): 0.0 | skin perfusion (LSCI), blood flow (OCT), erythema and roughness by 3D multispectral imaging ([5]; target lesions): no improvement | exposure in papillary dermis, lower than in epidermis ([6]; Figure 5, single HV and single MF patient, MALDI-MSI): approximately 10 fold | concentration at 6 h ([6]; day 42/84, 6 h after last application, read-out: mean cutaneous concentration in skin punch biopsies): 5300 ng/g | concentration at 6 h ([6]; day 42/84, read-out: cutaneous concentration in skin punch biopsies, range): 300 to 30200 ng/g

C[C@H](Nc1ncnc2nc[nH]c12)c1cc2cccc(Cl)c2c(=O)n1-c1ccccc1 [duvelisib]
complete responders by mSWAT (CTCL patients): 3 | partial responders by mSWAT (CTCL patients): 6

CO[C@H]1C[C@@H]2CC[C@@H](C)[C@@](O)(O2)C(=O)C(=O)N2CCCC[C@H]2C(=O)O[C@H]([C@H](C)C[C@@H]2CC[C@@H](OCCO)[C@H](OC)C2)CC(=O)[C@H](C)/C=C(\C)[C@@H](O)[C@@H](OC)C(=O)[C@H](C)C[C@H](C)/C=C/C=C/C=C/1C [everolimus]
antitumor activity in vitro (CTCL cell lines): has antitumor activity in vitro
